Key:
Italian ryegrass [1] = experiment: Test A preemergence; assay type: in vivo, Lolium multiflorum; details: for Plant response rating, Ryegrass, Italian: 0 to 100 scale where 0 is no effect and 100 is complete control
Outline: (§1)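 Scoring: eye-based comparison with untreated controls, 0 for no effect through 100 for complete control, at about day 10. Treatments: directed soil spray preemergence; foliar spray postemergence on 2–10 cm plants at the one- to two-leaf stage. Medium: loam soil with sand.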

Italian ryegrass [2] = experiment: Test A postemergence; assay type: in vivo, Lolium multiflorum; details: for Plant response rating, Ryegrass, Italian: 0 to 100 scale, 0 no effect, 100 complete control; for Ryegrass, Italian plant response rating: 0 to 100 scale where 0 is no effect and 100 is complete control
Outline: as §1

blackgrass = experiment: Test A postemergence; assay type: in vivo, Alopecurus myosuroides; details: for Plant response rating, Blackgrass: 0 to 100 scale, 0 no effect, 100 complete control; for Blackgrass plant response rating: 0 to 100 scale where 0 is no effect and 100 is complete control
Outline: as §1

giant foxtail [3] = experiment: Test A postemergence; assay type: in vivo, Setaria faberii; details: for Plant response rating, Foxtail, Giant: 0 to 100 scale, 0 no effect, 100 complete control; for Foxtail, Giant plant response rating: 0 to 100 scale where 0 is no effect and 100 is complete control
Outline: as §1

barnyardgrass [4] = experiment: Test A preemergence; assay type: in vivo, Echinochloa crus-galli; details: for Plant response rating, Barnyardgrass: 0 to 100 scale where 0 is no effect and 100 is complete control
Outline: as §1

galium = experiment: Test A postemergence; assay type: in vivo, Galium aparine; details: for Plant response rating, Galium: 0 to 100 scale, 0 no effect, 100 complete control; for Galium plant response rating: 0 to 100 scale where 0 is no effect and 100 is complete control
Outline: as §1

pigweed [5] = experiment: Test A postemergence; assay type: in vivo, Amaranthus retroflexus; details: for Plant response rating, Pigweed: 0 to 100 scale, 0 no effect, 100 complete control; for Pigweed plant response rating: 0 to 100 scale where 0 is no effect and 100 is complete control
Outline: as §1

wheat = experiment: Test A postemergence; assay type: in vivo, Triticum aestivum; details: for Plant response rating, Wheat: 0 to 100 scale, 0 no effect, 100 complete control; for Wheat plant response rating: 0 to 100 scale where 0 is no effect and 100 is complete control
Outline: as §1

pigweed [6] = experiment: Test A preemergence; assay type: in vivo, Amaranthus retroflexus; details: for Plant response rating, Pigweed: 0 to 100 scale where 0 is no effect and 100 is complete control
Outline: as §1

rice = experiment: Test B flooded paddy test; assay type: in vivo, Oryza sativa; details: Flood, 250 g ai/ha; 0 to 100 scale where 0 is no effect and 100 is complete control
Outline: (§2)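 Post-emergence paddy-water application at the 2-leaf stage, with 3 cm flood kept for the whole test. Response was judged visually relative to controls after 13 to 15 greenhouse days, 0 indicating no effect and 100 complete control.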

ragweed [7] = experiment: Test A postemergence; assay type: in vivo, Ambrosia elatior; details: for Plant response rating, Ragweed: 0 to 100 scale, 0 no effect, 100 complete control; for Ragweed plant response rating: 0 to 100 scale where 0 is no effect and 100 is complete control
Outline: as §1

Heteranthera limosa = experiment: Test B flooded paddy test; assay type: in vivo; details: Flood, 250 g ai/ha; 0 to 100 scale where 0 is no effect and 100 is complete control
Outline: as §2

kochia [8] = experiment: Test A preemergence; assay type: in vivo, Kochia scoparia; details: for Plant response rating, Kochia: 0 to 100 scale where 0 is no effect and 100 is complete control
Outline: as §1

sedge, umbrella = experiment: Test B flooded paddy test; assay type: in vivo, Cyperus difformis; details: Flood, 250 g ai/ha; 0 to 100 scale where 0 is no effect and 100 is complete control
Outline: as §2

kochia [9] = experiment: Test A postemergence; assay type: in vivo, Kochia scoparia; details: for Plant response rating, Kochia: 0 to 100 scale, 0 no effect, 100 complete control; for Kochia plant response rating: 0 to 100 scale where 0 is no effect and 100 is complete control
Outline: as §1

ragweed [10] = experiment: Test A preemergence; assay type: in vivo, Ambrosia elatior; details: for Plant response rating, Ragweed: 0 to 100 scale where 0 is no effect and 100 is complete control
Outline: as §1

barnyardgrass [11] = experiment: Test A postemergence; assay type: in vivo, Echinochloa crus-galli; details: for Plant response rating, Barnyardgrass: 0 to 100 scale, 0 no effect, 100 complete control; for Barnyardgrass plant response rating: 0 to 100 scale where 0 is no effect and 100 is complete control
Outline: as §1

barnyardgrass [12] = experiment: Test B flooded paddy test; assay type: in vivo, Echinochloa crus-galli; details: Flood, 250 g ai/ha; 0 to 100 scale where 0 is no effect and 100 is complete control
Outline: as §2

giant foxtail [13] = experiment: Test A preemergence; assay type: in vivo, Setaria faberii; details: for Plant response rating, Foxtail, Giant: 0 to 100 scale where 0 is no effect and 100 is complete control
Outline: as §1

corn = experiment: Test A postemergence; assay type: in vivo, Zea mays; details: for Plant response rating, Corn: 0 to 100 scale, 0 no effect, 100 complete control; for Corn plant response rating: 0 to 100 scale where 0 is no effect and 100 is complete control
Outline: as §1

[14] = 31 g ai/ha, visual, approximately 10 days

Structure (SMILES)	Plant response rating, Ryegrass, Italian (Italian ryegrass [1]; [14])	Ryegrass, Italian plant response rating (0 to 100 scale) (Italian ryegrass [1]; 125 g ai/ha)	Plant response rating, Ryegrass, Italian (Italian ryegrass [2]; 31 g ai/ha)	Plant response rating, Blackgrass (blackgrass; 31 g ai/ha)	Plant response rating, Foxtail, Giant (giant foxtail [3]; 31 g ai/ha)	Plant response rating, Barnyardgrass (barnyardgrass [4]; [14])	Plant response rating, Galium (galium; 31 g ai/ha)	Plant response rating, Pigweed (pigweed [5]; 31 g ai/ha)	Plant response rating, Wheat (wheat; 31 g ai/ha)	Plant response rating, Pigweed (pigweed [6]; [14])	Plant response rating, Rice (rice)	Plant response rating, Ragweed (ragweed [7]; 31 g ai/ha)	Plant response rating, Ducksalad (Heteranthera limosa)	Plant response rating, Kochia (kochia [8]; [14])	Plant response rating, Sedge, Umbrella (sedge, umbrella)	Plant response rating, Kochia (kochia [9]; 31 g ai/ha)	Plant response rating, Barnyardgrass (barnyardgrass [11]; 31 g ai/ha)	Plant response rating, Barnyardgrass (barnyardgrass [12])	Plant response rating, Foxtail, Giant (giant foxtail [13]; [14])	Plant response rating, Corn (corn; 31 g ai/ha)	other results
Cc1cn(-c2c(C#N)cccc2Oc2ncc(Cl)cn2)cn1 [Compound 260]	0	0	0	0	0	0	50	50	0	0	0	30	0	0	0	50	0	0	0	0	Plant response rating, Ryegrass, Italian (Italian ryegrass [2]; 125 g ai/ha): 0; Plant response rating, Blackgrass (blackgrass; 125 g ai/ha): 0; Plant response rating, Foxtail, Giant (giant foxtail [3]; 125 g ai/ha): 0; Barnyardgrass plant response rating (0 to 100 scale, 0 is no effect, 100 is complete control) (barnyardgrass [4]; 125 g ai/ha): 0; Plant response rating, Galium (galium; 125 g ai/ha): 60; Plant response rating, Pigweed (pigweed [5]; 125 g ai/ha): 60; Plant response rating, Wheat (wheat; 125 g ai/ha): 0; Pigweed plant response rating (0 to 100 scale) (pigweed [6]; 125 g ai/ha): 30; Plant response rating, Ragweed (ragweed [7]; 125 g ai/ha): 40; Kochia plant response rating (0 to 100 scale) (kochia [8]; 125 g ai/ha): 0; Plant response rating, Kochia (kochia [9]; 125 g ai/ha): 60; Plant response rating, Ragweed (ragweed [10]; [14]): 0; Ragweed plant response rating (0 to 100 scale) (ragweed [10]; 125 g ai/ha): 0; Plant response rating, Barnyardgrass (barnyardgrass [11]; 125 g ai/ha): 0; Foxtail, Giant plant response rating (0 to 100 scale) (giant foxtail [13]; 125 g ai/ha): 0; Plant response rating, Corn (corn; 125 g ai/ha): 10
N#Cc1cnn(-c2c(CF)cccc2Oc2ncc(Br)cn2)c1 [Compound 243]	0	0	0	0	0	0	0	10	0	0	0	20	30	0	0	20	0	0	0	0	Plant response rating, Ryegrass, Italian (Italian ryegrass [2]; 125 g ai/ha): 0; Plant response rating, Blackgrass (blackgrass; 125 g ai/ha): 30; Plant response rating, Foxtail, Giant (giant foxtail [3]; 125 g ai/ha): 10; Barnyardgrass plant response rating (0 to 100 scale, 0 is no effect, 100 is complete control) (barnyardgrass [4]; 125 g ai/ha): 30; Plant response rating, Galium (galium; 125 g ai/ha): 10; Plant response rating, Pigweed (pigweed [5]; 125 g ai/ha): 20; Plant response rating, Wheat (wheat; 125 g ai/ha): 20; Pigweed plant response rating (0 to 100 scale) (pigweed [6]; 125 g ai/ha): 80; Plant response rating, Ragweed (ragweed [7]; 125 g ai/ha): 20; Kochia plant response rating (0 to 100 scale) (kochia [8]; 125 g ai/ha): 90; Plant response rating, Kochia (kochia [9]; 125 g ai/ha): 30; Plant response rating, Ragweed (ragweed [10]; [14]): 0; Ragweed plant response rating (0 to 100 scale) (ragweed [10]; 125 g ai/ha): 20; Plant response rating, Barnyardgrass (barnyardgrass [11]; 125 g ai/ha): 0; Foxtail, Giant plant response rating (0 to 100 scale) (giant foxtail [13]; 125 g ai/ha): 100; Plant response rating, Corn (corn; 125 g ai/ha): 0
Fc1cnc(Oc2cccc(Br)c2-n2cc(OCC(F)(F)F)cn2)nc1 [Compound 157]	0		0	30	10	20	60	90	0	90	35	20	80	60	75	60	10	35	70	0	Plant response rating, Ryegrass, Italian (Italian ryegrass [1]; 125 g ai/ha): 0; Ryegrass, Italian plant response rating (Italian ryegrass [2]; 125 g ai/ha): 20; Blackgrass plant response rating (blackgrass; 125 g ai/ha): 50; Foxtail, Giant plant response rating (giant foxtail [3]; 125 g ai/ha): 80; Plant response rating, Barnyardgrass (barnyardgrass [4]; 125 g ai/ha): 80; Galium plant response rating (galium; 125 g ai/ha): 90; Pigweed plant response rating (pigweed [5]; 125 g ai/ha): 100; Wheat plant response rating (wheat; 125 g ai/ha): 0; Plant response rating, Pigweed (pigweed [6]; 125 g ai/ha): 90; Ragweed plant response rating (ragweed [7]; 125 g ai/ha): 50; Plant response rating, Kochia (kochia [8]; 125 g ai/ha): 90; Kochia plant response rating (kochia [9]; 125 g ai/ha): 100; Plant response rating, Ragweed (ragweed [10]; 125 g ai/ha): 30; Barnyardgrass plant response rating (barnyardgrass [11]; 125 g ai/ha): 80; Plant response rating, Foxtail, Giant (giant foxtail [13]; 125 g ai/ha): 100; Corn plant response rating (corn; 125 g ai/ha): 40
COc1cccc(Oc2ncc(Cl)cn2)c1-n1cc(Cl)cn1 [Compound 169]	0	0	0	0	0	10	10	10	0	0	15	10	65	0	75	0	0	25	30	0	Ryegrass, Italian plant response rating (Italian ryegrass [2]; 125 g ai/ha): 0; Blackgrass plant response rating (blackgrass; 125 g ai/ha): 30; Foxtail, Giant plant response rating (giant foxtail [3]; 125 g ai/ha): 40; Plant response rating, Barnyardgrass (barnyardgrass [4]; 125 g ai/ha): 50; Galium plant response rating (galium; 125 g ai/ha): 40; Pigweed plant response rating (pigweed [5]; 125 g ai/ha): 20; Wheat plant response rating (wheat; 125 g ai/ha): 0; Pigweed plant response rating (0 to 100 scale) (pigweed [6]; 125 g ai/ha): 80; Ragweed plant response rating (ragweed [7]; 125 g ai/ha): 60; Kochia plant response rating (0 to 100 scale) (kochia [8]; 125 g ai/ha): 0; Kochia plant response rating (kochia [9]; 125 g ai/ha): 10; Plant response rating, Ragweed (ragweed [10]; [14]): 0; Ragweed plant response rating (0 to 100 scale) (ragweed [10]; 125 g ai/ha): 0; Barnyardgrass plant response rating (barnyardgrass [11]; 125 g ai/ha): 20; Plant response rating, Foxtail, Giant (giant foxtail [13]; 125 g ai/ha): 80; Corn plant response rating (corn; 125 g ai/ha): 0

Reference: US9695155B2, “Herbicidal substituted pyrimidinyloxy benzene compounds” (E. I. DU PONT DE NEMOURS AND COMPANY, priority 2013, dated 2017)
